Results: PubChem BioAssay (NCI)
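These data come from cells grown in 96-well plates and exposed to compound for 48 hours at five concentrations. The concentration for 50% growth inhibition is given as GI50. TGI denotes the concentration required for complete inhibition of growth.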

Legend:
Experiment in all cases: growth of human tumour cells (NCI), 48 h
PC-3 prostate = tested on: PC-3 prostate
ACHN renal = tested on: ACHN renal
HCC-2998 colon = tested on: HCC-2998 colon
MDA-MB-231 breast = tested on: MDA-MB-231 breast
KM12 colon = tested on: KM12 colon
K-562 leukemia = tested on: K-562 leukemia
BT-549 breast = tested on: BT-549 breast
MDA-MB-435 = tested on: MDA-MB-435
NCI/ADR-RES ovarian = tested on: NCI/ADR-RES ovarian
SN12C renal = tested on: SN12C renal
MALME-3M melanoma = tested on: MALME-3M melanoma
OVCAR-3 ovarian = tested on: OVCAR-3 ovarian
OVCAR-8 ovarian = tested on: OVCAR-8 ovarian
SK-OV-3 ovarian = tested on: SK-OV-3 ovarian
A498 renal = tested on: A498 renal
SR leukemia = tested on: SR leukemia
SK-MEL-2 melanoma = tested on: SK-MEL-2 melanoma
DU-145 prostate = tested on: DU-145 prostate
HCT-15 colon = tested on: HCT-15 colon
SNB-19 CNS = tested on: SNB-19 CNS
NCI-H226 lung = tested on: NCI-H226 lung
A549 NSCLC = tested on: A549 NSCLC
HOP-62 NSCLC = tested on: HOP-62 NSCLC
MOLT-4 leukemia = tested on: MOLT-4 leukemia
SK-MEL-28 melanoma = tested on: SK-MEL-28 melanoma
LOX IMVI melanoma = tested on: LOX IMVI melanoma
HT29 colon = tested on: HT29 colon
UACC-62 melanoma = tested on: UACC-62 melanoma
SF-295 CNS = tested on: SF-295 CNS
OVCAR-5 ovarian = tested on: OVCAR-5 ovarian
TK-10 renal = tested on: TK-10 renal
UO-31 renal = tested on: UO-31 renal
HCT-116 colon = tested on: HCT-116 colon
HS 578T breast = tested on: HS 578T breast
OVCAR-4 ovarian = tested on: OVCAR-4 ovarian
M14 melanoma = tested on: M14 melanoma
NCI-H23 lung = tested on: NCI-H23 lung
SF-539 CNS = tested on: SF-539 CNS
SNB-75 CNS = tested on: SNB-75 CNS
U251 CNS = tested on: U251 CNS
T-47D breast = tested on: T-47D breast
UACC-257 melanoma = tested on: UACC-257 melanoma
EKVX NSCLC = tested on: EKVX NSCLC
RXF 393 renal = tested on: RXF 393 renal
IGROV1 ovarian = tested on: IGROV1 ovarian
CCRF-CEM leukemia = tested on: CCRF-CEM leukemia
786-0 renal = tested on: 786-0 renal
SW-620 colon = tested on: SW-620 colon
HL-60(TB) leukemia = tested on: HL-60(TB) leukemia
SK-MEL-5 melanoma = tested on: SK-MEL-5 melanoma
NCI-H460 lung = tested on: NCI-H460 lung
CAKI-1 renal = tested on: CAKI-1 renal
SF-268 CNS = tested on: SF-268 CNS
COLO 205 colon = tested on: COLO 205 colon
NCI-H522 lung = tested on: NCI-H522 lung
MCF7 breast = tested on: MCF7 breast
RPMI-8226 leukemia = tested on: RPMI-8226 leukemia

CC/C=C\C=C/C(=O)N/C=C/CC1Cc2cccc(O)c2C(=O)O1 (centres undefined)
GI50 (PC-3 prostate): 25.3 µM
TGI (PC-3 prostate): > 100 µM
GI50 (ACHN renal): 22.3 µM
TGI (ACHN renal): 52.1 µM
GI50 (HCC-2998 colon): 19.2 µM
TGI (HCC-2998 colon): 43.5 µM
GI50 (MDA-MB-231 breast): 17 µM
TGI (MDA-MB-231 breast): 39 µM
GI50 (KM12 colon): 19.2 µM
TGI (KM12 colon): 72.1 µM
GI50 (K-562 leukemia): 11.5 µM
TGI (K-562 leukemia): > 100 µM
GI50 (BT-549 breast): 25.8 µM
TGI (BT-549 breast): 87.3 µM
GI50 (MDA-MB-435): 3 µM
TGI (MDA-MB-435): 10.7 µM
GI50 (NCI/ADR-RES ovarian): 35.5 µM
TGI (NCI/ADR-RES ovarian): > 100 µM
GI50 (SN12C renal): 17.8 µM
TGI (SN12C renal): 38.1 µM
GI50 (MALME-3M melanoma): 41.5 µM
TGI (MALME-3M melanoma): > 100 µM
GI50 (OVCAR-3 ovarian): 15.1 µM
TGI (OVCAR-3 ovarian): 39.7 µM
GI50 (OVCAR-8 ovarian): 30 µM
TGI (OVCAR-8 ovarian): > 100 µM
GI50 (SK-OV-3 ovarian): 46.7 µM
TGI (SK-OV-3 ovarian): > 100 µM
GI50 (A498 renal): 20.6 µM
TGI (A498 renal): 59.9 µM
GI50 (SR leukemia): 2.22 µM
TGI (SR leukemia): 6.2 µM
GI50 (SK-MEL-2 melanoma): 22.9 µM
TGI (SK-MEL-2 melanoma): > 100 µM
GI50 (DU-145 prostate): 17.3 µM
TGI (DU-145 prostate): 52 µM
GI50 (HCT-15 colon): 13.6 µM
TGI (HCT-15 colon): 42 µM
GI50 (SNB-19 CNS): 32.9 µM
TGI (SNB-19 CNS): > 100 µM
GI50 (NCI-H226 lung): 39.6 µM
TGI (NCI-H226 lung): > 100 µM
GI50 (A549 NSCLC): 34.9 µM
TGI (A549 NSCLC): > 100 µM
GI50 (HOP-62 NSCLC): 14.5 µM
TGI (HOP-62 NSCLC): 50.5 µM
GI50 (MOLT-4 leukemia): 13.4 µM
TGI (MOLT-4 leukemia): 42.2 µM
GI50 (SK-MEL-28 melanoma): 17.4 µM
TGI (SK-MEL-28 melanoma): 58.7 µM
GI50 (LOX IMVI melanoma): 13.3 µM
TGI (LOX IMVI melanoma): 26.5 µM
GI50 (HT29 colon): 23.5 µM
TGI (HT29 colon): 53.7 µM
GI50 (UACC-62 melanoma): 22.6 µM
TGI (UACC-62 melanoma): > 100 µM
GI50 (SF-295 CNS): 33.1 µM
TGI (SF-295 CNS): > 100 µM
GI50 (OVCAR-5 ovarian): 32.5 µM
TGI (OVCAR-5 ovarian): 99.4 µM
GI50 (TK-10 renal): 62 µM
TGI (TK-10 renal): > 100 µM
GI50 (UO-31 renal): 35.4 µM
TGI (UO-31 renal): > 100 µM
GI50 (HCT-116 colon): 19.1 µM
TGI (HCT-116 colon): 42.2 µM
GI50 (HS 578T breast): 28.9 µM
TGI (HS 578T breast): > 100 µM
GI50 (OVCAR-4 ovarian): 44.4 µM
TGI (OVCAR-4 ovarian): > 100 µM
GI50 (M14 melanoma): 22.7 µM
TGI (M14 melanoma): 64.2 µM
GI50 (NCI-H23 lung): 58.1 µM
TGI (NCI-H23 lung): > 100 µM
GI50 (SF-539 CNS): 13.9 µM
TGI (SF-539 CNS): 37.1 µM
GI50 (SNB-75 CNS): 16 µM
TGI (SNB-75 CNS): > 100 µM
GI50 (U251 CNS): 23.3 µM
TGI (U251 CNS): > 100 µM
GI50 (T-47D breast): 36.1 µM
TGI (T-47D breast): > 100 µM
GI50 (UACC-257 melanoma): 25.2 µM
TGI (UACC-257 melanoma): > 100 µM
GI50 (EKVX NSCLC): 38.8 µM
TGI (EKVX NSCLC): > 100 µM
GI50 (RXF 393 renal): 16.1 µM
TGI (RXF 393 renal): 35.8 µM
GI50 (IGROV1 ovarian): 38 µM
TGI (IGROV1 ovarian): > 100 µM
GI50 (CCRF-CEM leukemia): 15 µM
TGI (CCRF-CEM leukemia): 39.9 µM
GI50 (786-0 renal): 25.2 µM
TGI (786-0 renal): 73.8 µM
GI50 (SW-620 colon): 13.8 µM
TGI (SW-620 colon): 28.2 µM
GI50 (HL-60(TB) leukemia): 23.8 µM
TGI (HL-60(TB) leukemia): > 100 µM
GI50 (SK-MEL-5 melanoma): 5.63 µM
TGI (SK-MEL-5 melanoma): 27.3 µM
GI50 (NCI-H460 lung): 24.3 µM
TGI (NCI-H460 lung): 62.1 µM
GI50 (CAKI-1 renal): 17.3 µM
TGI (CAKI-1 renal): 36.3 µM
GI50 (SF-268 CNS): 15.1 µM
TGI (SF-268 CNS): 53.3 µM
GI50 (COLO 205 colon): 20.3 µM
TGI (COLO 205 colon): 41.2 µM
GI50 (NCI-H522 lung): 19.5 µM
TGI (NCI-H522 lung): 55.2 µM
GI50 (MCF7 breast): 3.87 µM
TGI (MCF7 breast): 49.4 µM
GI50 (RPMI-8226 leukemia): 22.2 µM
TGI (RPMI-8226 leukemia): 56.4 µM
